Source: patent publication US11149037B2, “Pyrazole MAGL inhibitors” (H. Lundbeck A/S, priority 2017, dated 2021)

Legend:
[1] = molecular target: FAAH (Homo sapiens (Human), UniProt O00519); experiment: In vitro competitive activity-based protein profiling, human proteomes (prefrontal cortex or PC3 cell membrane fractions); assay type: biochemical; conditions: human proteome; for inhibition at 1 µM: read-out: FAAH % inh. 1 μM (human)
In short: (§1)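 Activity of MAGL and FAAH was quantified from fluorescent gel band intensities. Beforehand, inhibitors at several concentrations competed against subsequent probe labelling (FP-Rh, JW912 or HT-01) in species-matched proteomes, each step 30 min at 37° C.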

[2] = molecular target: MAGL (Homo sapiens (Human), UniProt Q99685); experiment: as above; assay type: biochemical; conditions: human proteome; for inhibition at 1 µM: read-out: MAGL % inh. 1 μM (human)
In short: as §1

[3] = molecular target: T1, FAAH (Mus musculus (Mouse), UniProt O08914); experiment: In vitro competitive activity-based protein profiling, mouse proteomes (brain membrane fraction or cell lysates); assay type: biochemical; conditions: mouse proteome, read-out: FAAH % inh. 1 μM (mouse)
In short: as §1

[4] = molecular target: T2, MAGL (Mus musculus (Mouse), UniProt O35678); experiment: as above; assay type: biochemical; conditions: mouse proteome, read-out: MAGL % inh. 1 μM (mouse)
In short: as §1

[5] = molecular target: T1, FAAH; experiment: Mouse brain proteomes from inhibitor treated mice (oral gavage, sacrificed 4 h after administration); assay type: in vivo; conditions: 5 mg/kg oral gavage
Experimental: (§2) Preparation of Mouse Brain Proteomes from Inhibitor Treated Mice.
(§3) Inhibitors were administered to wild-type C57B1/6J by oral gavage in a vehicle of polyethylene glycol. Each animal was sacrificed 4 h following administration and brain proteomes were prepared and analyzed according to previously established methods (See Niphakis, M. J., et al. (2011) ACS Chem. Neurosci. and Long, J. Z., et al. Nat. Chem. Biol. 5:37-44).

[6] = molecular target: T2, MAGL; experiment: as above; assay type: in vivo; conditions: 5 mg/kg oral gavage
Experimental: as §2, §3

Sequence of MAGL (Homo sapiens (Human), UniProt Q99685) (Q99685 whole entry): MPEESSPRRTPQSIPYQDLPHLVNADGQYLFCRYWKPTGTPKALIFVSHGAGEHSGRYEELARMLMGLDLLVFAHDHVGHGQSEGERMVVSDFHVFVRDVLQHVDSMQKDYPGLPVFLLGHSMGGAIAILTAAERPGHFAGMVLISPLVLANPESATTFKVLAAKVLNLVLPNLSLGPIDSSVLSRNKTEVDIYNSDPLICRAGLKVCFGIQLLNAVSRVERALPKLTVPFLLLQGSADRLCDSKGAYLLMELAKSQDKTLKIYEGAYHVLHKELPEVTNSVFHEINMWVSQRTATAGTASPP
Sequence of FAAH (Homo sapiens (Human), UniProt O00519) (O00519 whole entry): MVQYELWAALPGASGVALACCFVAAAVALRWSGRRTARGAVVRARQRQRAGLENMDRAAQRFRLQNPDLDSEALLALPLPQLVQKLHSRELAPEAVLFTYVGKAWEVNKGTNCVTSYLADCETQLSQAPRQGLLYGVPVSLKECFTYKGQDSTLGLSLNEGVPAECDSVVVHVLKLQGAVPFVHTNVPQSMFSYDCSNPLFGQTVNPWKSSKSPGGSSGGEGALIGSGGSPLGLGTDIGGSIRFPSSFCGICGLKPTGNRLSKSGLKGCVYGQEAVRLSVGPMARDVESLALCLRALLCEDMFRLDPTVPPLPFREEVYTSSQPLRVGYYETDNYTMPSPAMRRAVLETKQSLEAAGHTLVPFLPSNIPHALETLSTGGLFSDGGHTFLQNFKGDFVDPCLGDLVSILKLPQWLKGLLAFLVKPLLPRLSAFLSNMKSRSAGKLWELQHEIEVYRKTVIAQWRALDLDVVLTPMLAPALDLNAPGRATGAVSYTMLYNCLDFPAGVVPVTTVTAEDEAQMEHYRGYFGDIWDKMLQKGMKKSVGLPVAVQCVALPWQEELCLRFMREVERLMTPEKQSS
T1 sequence (O08914 whole entry): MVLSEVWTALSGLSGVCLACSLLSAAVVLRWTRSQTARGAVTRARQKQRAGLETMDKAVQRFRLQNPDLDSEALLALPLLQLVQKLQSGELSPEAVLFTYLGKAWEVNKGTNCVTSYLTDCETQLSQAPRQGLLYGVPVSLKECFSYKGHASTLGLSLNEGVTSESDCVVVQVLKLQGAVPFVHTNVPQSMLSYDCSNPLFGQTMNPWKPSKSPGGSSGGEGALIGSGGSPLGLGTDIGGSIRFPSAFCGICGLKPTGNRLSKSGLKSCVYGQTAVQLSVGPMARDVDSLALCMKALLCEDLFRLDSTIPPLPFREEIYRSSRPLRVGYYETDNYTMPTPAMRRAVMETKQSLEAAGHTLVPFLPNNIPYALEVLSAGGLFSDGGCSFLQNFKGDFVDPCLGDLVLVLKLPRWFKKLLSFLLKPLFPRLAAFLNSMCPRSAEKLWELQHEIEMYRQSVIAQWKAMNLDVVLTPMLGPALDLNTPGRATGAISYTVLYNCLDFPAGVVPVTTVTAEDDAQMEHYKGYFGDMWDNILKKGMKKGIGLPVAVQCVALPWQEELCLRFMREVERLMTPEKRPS
T2 sequence (O35678 whole entry): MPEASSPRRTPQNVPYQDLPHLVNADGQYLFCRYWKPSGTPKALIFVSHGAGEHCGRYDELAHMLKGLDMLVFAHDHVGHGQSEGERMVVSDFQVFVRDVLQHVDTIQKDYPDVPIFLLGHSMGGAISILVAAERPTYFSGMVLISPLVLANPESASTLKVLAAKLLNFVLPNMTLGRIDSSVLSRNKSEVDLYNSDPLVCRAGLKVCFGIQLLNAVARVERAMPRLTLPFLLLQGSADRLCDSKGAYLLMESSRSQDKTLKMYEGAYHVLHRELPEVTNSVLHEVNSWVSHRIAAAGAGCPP

In the case of `CC(=O)Nc1ccn(C(=O)N2CCC(C)(N(C)Cc3cc(C(F)(F)F)cc(C4(C(=O)O)CCCC4)c3)CC2)n1` [Example 132, 1-(3-(((1-(3-Acetamido-1H-pyrazole-1-carbonyl)-4-methylpiperidin-4-yl)(methyl)amino)methyl)-5-(trifluoromethyl)phenyl)cyclopentane-1-carboxylic acid], the inhibition at 1 µM [1] is reported as 0 to 25%, the IC50 [1] is reported as 1 to 10 µM and the inhibition at 1 µM [2] is reported as > 75%. The IC50 [2] was < 0.1 µM, the inhibition at 1 µM [3] was 0 to 25% and the inhibition at 1 µM [4] was > 75%. For the same molecule, the “FAAH % inh. 5 mg/kg (mouse)” value [5] was “D (% inhibition is greater than or equal to 0% and less than 25%)” and the “MAGL % inh. 5 mg/kg (mouse)” value [6] was “D (% inhibition is greater than or equal to 0% and less than 25%)”.
With `CS(=O)(=O)Nc1ccn(C(=O)N2CCC3(CCN(Cc4ccc(C(F)(F)F)cc4N4CCCC4)C3)CC2)n1` [Example 58, N-(1-(2-(2-(Pyrrolidin-1-yl)-4-(trifluoromethyl)benzyl)-2,8-diazaspiro[4.5]decane-8-carbonyl)-1H-pyrazol-3-yl)methanesulfonamide] the inhibition at 1 µM [1] was 0 to 25%, the inhibition at 1 µM [2] was > 75% and the inhibition at 1 µM [3] was 0 to 25%. The inhibition at 1 µM [4] was > 75%, the “FAAH % inh. 5 mg/kg (mouse)” value [5] was “D (% inhibition is greater than or equal to 0% and less than 25%)” and the “MAGL % inh. 5 mg/kg (mouse)” value [6] was “A (% inhibition is greater than or equal to 75%)”.
`C[C@H]1CN(Cc2ccc(Cl)c(N3CC4COCC4C3)c2)CCN1C(=O)n1ccc(NS(C)(=O)=O)n1` (stereo partly drawn) [Example 135, N-(1-((2S)-4-(4-Chloro-3-(tetrahydro-1H-furo[3,4-c]pyrrol-5(3H)-yl)benzyl)-2-methylpiperazine-1-carbonyl)-1H-pyrazol-3-yl)methanesulfonamide] was tested, and the inhibition at 1 µM [1] was 0 to 25%, the inhibition at 1 µM [2] was > 75% and the inhibition at 1 µM [3] was 0 to 25%. The inhibition at 1 µM [4] was > 75%, the “FAAH % inh. 5 mg/kg (mouse)” value [5] was “D (% inhibition is greater than or equal to 0% and less than 25%)” and the “MAGL % inh. 5 mg/kg (mouse)” value [6] was “D (% inhibition is greater than or equal to 0% and less than 25%)”.
For `CN(Cc1ccc(C(F)(F)F)cc1N1CCOCC1)C1(C)CCN(C(=O)n2ccc(NS(C)(=O)=O)n2)CC1` [Example 94, N-(1-(4-Methyl-4-(methyl(2-morpholino-4-(trifluoromethyl)benzyl)amino)piperidine-1-carbonyl)-1H-pyrazol-3-yl)methanesulfonamide], the inhibition at 1 µM [1] was 0 to 25%, the inhibition at 1 µM [2] was > 75% and the inhibition at 1 µM [3] was 0 to 25%. For the same molecule, the inhibition at 1 µM [4] was > 75%, the “FAAH % inh. 5 mg/kg (mouse)” value [5] was “D (% inhibition is greater than or equal to 0% and less than 25%)” and the “MAGL % inh. 5 mg/kg (mouse)” value [6] was “A (% inhibition is greater than or equal to 75%)”.
In the case of `C[C@@H](c1ccc(Cl)c(N2CCC(F)CC2)c1)N1CCN(C(=O)n2ccc(NS(C)(=O)=O)n2)CC1` [Example 11, (S)—N-(1-(4-(1-(4-chloro-3-(4-fluoropiperidin-1-yl)phenyl)ethyl)piperazine-1-carbonyl)-1H-pyrazol-3-yl)methanesulfonamide], the inhibition at 1 µM [1] is reported as 0 to 25%, the IC50 [1] is reported as 1 to 10 µM and the inhibition at 1 µM [2] is reported as > 75%. For the same molecule, the IC50 [2] was < 0.1 µM, the inhibition at 1 µM [3] was 0 to 25% and the inhibition at 1 µM [4] was > 75%. For the same molecule, the “FAAH % inh. 5 mg/kg (mouse)” value [5] was “D (% inhibition is greater than or equal to 0% and less than 25%)” and the “MAGL % inh. 5 mg/kg (mouse)” value [6] was “C (% inhibition is greater than or equal to 25% and less than 50%)”.
For `CS(=O)(=O)Nc1ccn(C(=O)N2CCN(Cc3ccc(Cl)c(N4CCCC45CC5)c3)CC2)n1` [Example 12, N-(1-(4-(4-chloro-3-(4-azaspiro[2.4]heptan-4-yl)benzyl)piperazine-1-carbonyl)-1H-pyrazol-3-yl)methanesulfonamide], the inhibition at 1 µM [1] was 0 to 25%, the inhibition at 1 µM [2] was > 75% and the inhibition at 1 µM [3] was 0 to 25%. For the same molecule, the inhibition at 1 µM [4] was > 75%, the “FAAH % inh. 5 mg/kg (mouse)” value [5] was “D (% inhibition is greater than or equal to 0% and less than 25%)” and the “MAGL % inh. 5 mg/kg (mouse)” value [6] was “D (% inhibition is greater than or equal to 0% and less than 25%)”.
In the case of `CC(=O)Nc1ccn(C(=O)N2CCN(Cc3ccc(Cl)cc3OC3(C(=O)O)CC3)CC2)n1` [Example 4, 1-(2-((4-(3-acetamido-1H-pyrazole-1-carbonyl)piperazin-1-yl)methyl)-5-chlorophenoxy)cyclopropane-1-carboxylic acid], the inhibition at 1 µM [1] is reported as 0 to 25%, the inhibition at 1 µM [2] is reported as > 75% and the inhibition at 1 µM [3] is reported as 0 to 25%. For the same molecule, the inhibition at 1 µM [4] was > 75%, the “FAAH % inh. 5 mg/kg (mouse)” value [5] was “D (% inhibition is greater than or equal to 0% and less than 25%)” and the “MAGL % inh. 5 mg/kg (mouse)” value [6] was “D (% inhibition is greater than or equal to 0% and less than 25%)”.
With `CC(=O)Nc1ccn(C(=O)N2CC3CN(Cc4ccc(N5CCCC5)cc4Cl)CC3C2)n1` (stereo not drawn) [Example 169, N-(1-(5-(2-Chloro-4-(pyrrolidin-1-yl)benzyl)octahydropyrrolo[3,4-c]pyrrole-2-carbonyl)-1H-pyrazol-3-yl)acetamide] the inhibition at 1 µM [1] was 50 to 75%, the inhibition at 1 µM [2] was > 75% and the inhibition at 1 µM [3] was > 75%. The inhibition at 1 µM [4] was > 75%, the “FAAH % inh. 5 mg/kg (mouse)” value [5] was “B (% inhibition is greater than or equal to 50% and less than 75%)” and the “MAGL % inh. 5 mg/kg (mouse)” value [6] was “B (% inhibition is greater than or equal to 50% and less than 75%)”.
`CS(=O)(=O)Nc1ccn(C(=O)N2CCN(Cc3ccc(Cl)c(N4CCC5(CCOCC5)C4)c3)CC2)n1` [Example 159, N-(1-(4-(4-Chloro-3-(8-oxa-2-azaspiro[4.5]decan-2-yl)benzyl)piperazine-1-carbonyl)-1H-pyrazol-3-yl)methanesulfonamide] was tested, and the inhibition at 1 µM [1] was 0 to 25%, the inhibition at 1 µM [2] was > 75% and the inhibition at 1 µM [3] was 0 to 25%. The inhibition at 1 µM [4] was > 75%, the “FAAH % inh. 5 mg/kg (mouse)” value [5] was “D (% inhibition is greater than or equal to 0% and less than 25%)” and the “MAGL % inh. 5 mg/kg (mouse)” value [6] was “D (% inhibition is greater than or equal to 0% and less than 25%)”.
With `CC(=O)Nc1ccn(C(=O)N2CC[C@H](Oc3ccc(C(N)=O)c(C(F)(F)F)c3)[C@H](F)C2)n1` [Example 118, 4-(((3R,4S)-1-(3-Acetamido-1H-pyrazole-1-carbonyl)-3-fluoropiperidin-4-yl)oxy)-2-(trifluoromethyl)benzamide] the inhibition at 1 µM [1] was 0 to 25%, the inhibition at 1 µM [2] was > 75% and the inhibition at 1 µM [3] was 0 to 25%. The inhibition at 1 µM [4] was > 75%, the “FAAH % inh. 5 mg/kg (mouse)” value [5] was “D (% inhibition is greater than or equal to 0% and less than 25%)” and the “MAGL % inh. 5 mg/kg (mouse)” value [6] was “D (% inhibition is greater than or equal to 0% and less than 25%)”.
`CC(C)OC1CCN(c2cc(CN3CCN(C(=O)n4ccc(NS(C)(=O)=O)n4)C[C@@H]3C)ccc2Cl)CC1` [Example 32, (S)—N-(1-(4-(4-chloro-3-(4-isopropoxypiperidin-1-yl)benzyl)-3-methylpiperazine-1-carbonyl)-1H-pyrazol-3-yl)methanesulfonamide] was tested, and the inhibition at 1 µM [1] was 0 to 25%, the inhibition at 1 µM [2] was > 75% and the inhibition at 1 µM [3] was 0 to 25%. The inhibition at 1 µM [4] was > 75%, the “FAAH % inh. 5 mg/kg (mouse)” value [5] was “D (% inhibition is greater than or equal to 0% and less than 25%)” and the “MAGL % inh. 5 mg/kg (mouse)” value [6] was “A (% inhibition is greater than or equal to 75%)”.
`C[C@@H]1CN(C(=O)n2ccc(NS(C)(=O)=O)n2)CCN1Cc1ccc(Cl)c(N2CC3COCC3C2)c1` (stereo partly drawn) [Example 133, N-(1-((3R)-4-(4-Chloro-3-(tetrahydro-1H-furo[3,4-c]pyrrol-5(3H)-yl)benzyl)-3-methylpiperazine-1-carbonyl)-1H-pyrazol-3-yl)methanesulfonamide] was tested, and the inhibition at 1 µM [1] was 0 to 25%, the inhibition at 1 µM [2] was > 75% and the inhibition at 1 µM [3] was 0 to 25%. The inhibition at 1 µM [4] was > 75%, the “FAAH % inh. 5 mg/kg (mouse)” value [5] was “D (% inhibition is greater than or equal to 0% and less than 25%)” and the “MAGL % inh. 5 mg/kg (mouse)” value [6] was “D (% inhibition is greater than or equal to 0% and less than 25%)”.
`CC(=O)Nc1ccn(C(=O)N2CC3CN(Cc4ccc(Cl)c(C(C)(C)O)c4)CC3C2)n1` (stereo not drawn) [Example 150, N-(1-(5-(4-Chloro-3-(2-hydroxypropan-2-yl)benzyl)octahydropyrrolo[3,4-c]pyrrole-2-carbonyl)-1H-pyrazol-3-yl)acetamide] was tested, and the inhibition at 1 µM [1] was 25 to 50%, the IC50 [1] was 1 to 10 µM and the inhibition at 1 µM [2] was > 75%. For the same molecule, the IC50 [2] was < 0.1 µM, the inhibition at 1 µM [3] was 0 to 25% and the inhibition at 1 µM [4] was > 75%. For the same molecule, the “FAAH % inh. 5 mg/kg (mouse)” value [5] was “D (% inhibition is greater than or equal to 0% and less than 25%)” and the “MAGL % inh. 5 mg/kg (mouse)” value [6] was “D (% inhibition is greater than or equal to 0% and less than 25%)”.
`C[C@H]1CN(Cc2ccc(Cl)c(N3CCC(F)CC3)c2)CCN1C(=O)n1ccc(NS(C)(=O)=O)n1` [Example 136, (S)-N-(1-(4-(4-Chloro-3-(4-fluoropiperidin-1-yl)benzyl)-2-methylpiperazine-1-carbonyl)-1H-pyrazol-3-yl)methanesulfonamide] was tested, and the inhibition at 1 µM [1] was 0 to 25%, the inhibition at 1 µM [2] was > 75% and the inhibition at 1 µM [3] was 0 to 25%. For the same molecule, the inhibition at 1 µM [4] was > 75%, the “FAAH % inh. 5 mg/kg (mouse)” value [5] was “D (% inhibition is greater than or equal to 0% and less than 25%)” and the “MAGL % inh. 5 mg/kg (mouse)” value [6] was “A (% inhibition is greater than or equal to 75%)”.
